Experimental data from patent US12251387B2, “Substituted quinoxalines and benzo[c][1,2,5]oxadiazoles as DNA-PK inhibitors” (Vertex Pharmaceuticals Incorporated, priority 2013, dated 2025).

The molecules below were run against DNA-PK (Homo sapiens, UniProt P78527) (assay: DNA-PK Inhibition Assay (standard radiometric kinase assay, 33P-ATP, peptide substrate)). Conditions: not given.
Type: biochemical
Outline: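 Radiometric transfer of 33P from ATP (100 μM) to peptide substrate (0.8 mg/mL) by about 6 nM DNA-PK with 10 μg/mL sheared dsDNA, pH 7.5 HEPES/MgCl2, 45 min, phosphoric acid quench, filter capture and scintillation counting. Ki fitted to a competitive tight-binding inhibition model.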
In the case of ClCCN1CCC(c2cnc(N[C@H]3CC[C@@H](Oc4cc(N5CCOCC5)cc5nccnc45)CC3)nc2)CC1 [Compound 522], the Ki is reported as less than 0.1 µM.

Same assay, conditions: radiometric assay, approximately 6 nM DNA-PK, 100 μM ATP, 45 min; fit to competitive tight-binding inhibition; read-out: Ki for the inhibition of DNA-PK
CCc1ncnc(N[C@H]2CC[C@@H](Oc3cc(C4=CCOCC4)cc4nccnc34)CC2)c1F [Compound 295] showed a Ki of less than 0.1 µM. In the case of COc1cncnc1N[C@H]1CC[C@@H](Oc2cc(N3CCOCC3)cc3nccnc23)CC1 [Compound 438], the Ki is reported as less than 0.1 µM. Cc1cn(C)c(N[C@H]2CC[C@@H](Oc3cc(N4CCOCC4)cc4nccnc34)CC2)n1 [Compound 646] gave a Ki of less than 0.1 µM. COCc1ccnc(N[C@H]2CC[C@@H](Oc3cc(N4CCOCC4)cc4nccnc34)CC2)c1 [Compound 582] gave a Ki of less than 0.1 µM. Work on OCc1cc(N[C@H]2CC[C@@H](Oc3cc(N4CCOCC4)cc4nccnc34)CC2)ncn1 [Compound 424] yielded a Ki of less than 0.1 µM. Clc1nc(N[C@H]2CC[C@@H](Oc3cc(N4CCOCC4)cc4nccnc34)CC2)nc2[nH]ccc12 [Compound 501] was tested, and the Ki was less than 0.1 µM. Molecule COc1cc(N[C@H]2CC[C@@H](Oc3cc(N4CCOCC4)cc4nccnc34)CC2)nc(C)n1 [Compound 659] has a Ki of less than 0.1 µM. For CNc1ncnc(N[C@H]2CC[C@@H](Oc3cc(N4CCOCC4)cc4nccnc34)CC2)c1F [Compound 469], the Ki was less than 0.1 µM. In the case of c1cnc2nc(N[C@H]3CC[C@@H](Oc4cc(N5CCOCC5)cc5nccnc45)CC3)sc2c1 [Compound 330], the Ki is reported as less than 0.1 µM. Molecule c1cnc(N[C@H]2C[C@@H](COc3cc(N4CCOCC4)cc4nccnc34)C2)nc1 [Compound 305] has a Ki of less than 0.1 µM. For CCN1CCC(c2cnc(N[C@H]3CC[C@@H](Oc4cc(N5CCOCC5)cc5nccnc45)CC3)nc2)CC1 [Compound 523], the Ki was less than 0.1 µM. CN1CCc2ncnc(N[C@H]3CC[C@@H](Oc4cc(N5CCOCC5)cc5nccnc45)CC3)c2C1 [Compound 398] showed a Ki of less than 0.1 µM. In the case of Cc1cc(C)n2nc(N[C@H]3CC[C@@H](Oc4cc(N5CCOCC5)cc5nccnc45)CC3)nc2n1 [Compound 299], the Ki is reported as less than 0.1 µM. Molecule Cc1cnc(N[C@H]2CC[C@@H](Oc3cc(N4CCOCC4)cc4nccnc34)CC2)nc1C [Compound 467] has a Ki of less than 0.1 µM. FC(F)(F)c1cccc(N[C@H]2CC[C@@H](Oc3cc(N4CCOCC4)cc4nccnc34)CC2)n1 [Compound 587] was tested, and the Ki was less than 0.1 µM. COCCOc1cnc(N[C@H]2CC[C@@H](Oc3cc(N4CCOCC4)cc4nccnc34)CC2)nc1 [Compound 612] was tested, and the Ki was less than 0.1 µM. With [2H]C([2H])([2H])c1nccc(N[C@H]2CC[C@@H](Oc3cc(N4CCOCC4)cc4nccnc34)CC2)n1 [Compound 478] the Ki was less than 0.1 µM. In the case of c1cc(N[C@H]2CC[C@@H](Oc3cc(N4CCOCC4)cc4nccnc34)CC2)nc(CN2CCCCC2)n1 [Compound 496], the Ki is reported as less than 0.1 µM. For COc1cc(N[C@H]2CC[C@@H](Oc3cc(N4CCOCC4)cc4nccnc34)CC2)nc(N(C)C)n1 [Compound 553], the Ki was less than 0.1 µM. In the case of c1cnc2c(O[C@H]3CC[C@@H](Nc4ncc(CCN5CCCCC5)cn4)CC3)cc(N3CCOCC3)cc2n1 [Compound 433], the Ki is reported as less than 0.1 µM. c1cc2ncnn2c(N[C@H]2CC[C@@H](Oc3cc(N4CCOCC4)cc4nccnc34)CC2)n1 [Compound 542] showed a Ki of less than 0.1 µM. Work on Cc1ncnc(N[C@H]2CC[C@@H](Oc3cc(N4CCOCC4)cc4nccnc34)CC2)c1C [Compound 491] yielded a Ki of less than 0.1 µM. Clc1cnc(N[C@H]2CC[C@@H](Oc3cc(N4CCOCC4)cc4nccnc34)CC2)nc1 [Compound 485] showed a Ki of less than 0.1 µM. In the case of CNC(=O)c1ccnc(N[C@H]2CC[C@@H](Oc3cc(C4=CCOCC4)cc4nccnc34)CC2)n1 [Compound 319], the Ki is reported as less than 0.1 µM. Molecule Cc1cc(N[C@H]2CC[C@@H](Oc3cc(N4CCOCC4)cc4nccnc34)CC2)nn1C [Compound 326] has a Ki of less than 0.1 µM. c1cc2c(c(N[C@H]3CC[C@@H](Oc4cc(N5CCOCC5)cc5nccnc45)CC3)n1)CCN2 [Compound 371] was tested, and the Ki was less than 0.1 µM. With FC(F)(F)c1cnc(N[C@H]2CC[C@@H](Oc3cc(N4CCOCC4)cc4nccnc34)CC2)cn1 [Compound 366] the Ki was less than 0.1 µM. CN1CCC(NC(=O)N[C@H]2CC[C@@H](Oc3cc(N4CCOCC4)cc4nccnc34)CC2)CC1 [Compound 363] was tested, and the Ki was less than 0.1 µM. Work on Cc1ncncc1N[C@H]1CC[C@@H](Oc2cc(N3CCOCC3)cc3nccnc23)CC1 [Compound 448] yielded a Ki of less than 0.1 µM. Cn1ccc(N[C@H]2CC[C@@H](Oc3cc(N4CCOCC4)cc4nccnc34)CC2)n1 [Compound 649] was tested, and the Ki was less than 0.1 µM. For c1cc(CN2CCOCC2)nc(N[C@H]2CC[C@@H](Oc3cc(N4CCOCC4)cc4nccnc34)CC2)n1 [Compound 505], the Ki was less than 0.1 µM. COc1cccc(N[C@H]2CC[C@@H](Oc3cc(N4CCOCC4)cc4nccnc34)CC2)c1 [Compound 408] showed a Ki of less than 0.1 µM. Molecule COc1ccc(N[C@H]2CC[C@@H](Oc3cc(N4CCOCC4)cc4nccnc34)CC2)nc1OC [Compound 583] has a Ki of less than 0.1 µM. Cc1cc2nc(N[C@H]3CC[C@@H](Oc4cc(N5CCOCC5)cc5nccnc45)CC3)cc(=O)n2o1 [Compound 596] gave a Ki of less than 0.1 µM. Fc1c(N[C@H]2CC[C@@H](Oc3cc(N4CCOCC4)cc4nccnc34)CC2)ncnc1C1CC1 [Compound 456] was tested, and the Ki was less than 0.1 µM. NC(=O)c1csc(N[C@H]2CC[C@@H](Oc3cc(N4CCOCC4)cc4nccnc34)CC2)n1 [Compound 331] was tested, and the Ki was less than 0.1 µM. In the case of Fc1cccnc1N[C@H]1CC[C@@H](Oc2cc(N3CCOCC3)cc3nccnc23)CC1 [Compound 591], the Ki is reported as less than 0.1 µM. With CC(C)(O)c1ccc(N[C@H]2CC[C@@H](Oc3cc(N4CCOCC4)cc4nccnc34)CC2)nc1 [Compound 281] the Ki was less than 0.1 µM. COc1ncnc(N[C@H]2CC[C@@H](Oc3cc(N4CCOCC4)cc4nccnc34)CC2)c1F [Compound 376] showed a Ki of less than 0.1 µM. In the case of Cc1cnc2cc(N3CCOCC3)cc(O[C@H]3CC[C@@H](Nc4ncc(C5CCN(C)CC5)cn4)CC3)c2n1 [Compound 544], the Ki is reported as less than 0.1 µM. In the case of CCCc1nc(C)cc(N[C@H]2CC[C@@H](Oc3cc(N4CCOCC4)cc4nccnc34)CC2)n1 [Compound 618], the Ki is reported as less than 0.1 µM. For c1cnc2c(O[C@H]3CC[C@@H](Nc4ncc5occc5n4)CC3)cc(N3CCOCC3)cc2n1 [Compound 563], the Ki was less than 0.1 µM. For Cc1nc2c(c(N[C@H]3CC[C@@H](Oc4cc(N5CCOCC5)cc5nccnc45)CC3)n1)OCC2 [Compound 403], the Ki was less than 0.1 µM. In the case of Cc1nc(N[C@H]2CC[C@@H](Oc3cc(N4CCOCC4)cc4nccnc34)CC2)cc(N(C)C)n1 [Compound 602], the Ki is reported as less than 0.1 µM. In the case of CC(=O)N1CCC(NC(=O)N[C@H]2CC[C@@H](Oc3cc(N4CCOCC4)cc4nccnc34)CC2)CC1 [Compound 364], the Ki is reported as less than 0.1 µM. Clc1cncc(N[C@H]2CC[C@@H](Oc3cc(N4CCOCC4)cc4nccnc34)CC2)n1 [Compound 374] showed a Ki of less than 0.1 µM. In the case of CNC(=O)c1ccnc(N[C@H]2CC[C@@H](Oc3cc(N4CC5CC(C4)O5)cc4nccnc34)CC2)n1 [Compound 317], the Ki is reported as less than 0.1 µM. Fc1cncnc1N[C@H]1CC[C@@H](Oc2cc(N3CCOCC3)cc3nccnc23)CC1 [Compound 531] was tested, and the Ki was less than 0.1 µM. Molecule Cc1cnc(N[C@H]2CC[C@@H](Oc3cc(N4CCOCC4)cc4nccnc34)CC2)c(C)n1 [Compound 323] has a Ki of less than 0.1 µM. With Cc1cncnc1N[C@H]1CC[C@@H](Oc2cc(N3CCOCC3)cc3nccnc23)CC1 [Compound 471] the Ki was less than 0.1 µM. CN1CCC[C@H]1CNc1ncnc(N[C@H]2CC[C@@H](Oc3cc(N4CCOCC4)cc4nccnc34)CC2)c1F [Compound 359] showed a Ki of less than 0.1 µM. For c1cc(N[C@H]2CC[C@@H](Oc3cc(N4CCOCC4)cc4nccnc34)CC2)nc(N2CCOCC2)c1 [Compound 590], the Ki was less than 0.1 µM. With Nc1nccc(N[C@H]2CC[C@@H](Oc3cc(N4CCOCC4)cc4nccnc34)CC2)n1 [Compound 397] the Ki was less than 0.1 µM. In the case of O=C(O)c1cccc(N[C@H]2CC[C@@H](Oc3cc(N4CCOCC4)cc4nccnc34)CC2)n1 [Compound 419], the Ki is reported as less than 0.1 µM. For Cc1nccc(N[C@H]2CC[C@@H](Oc3cc(N4CCO[C@H](CO)C4)cc4nccnc34)CC2)n1 [Compound 320], the Ki was less than 0.1 µM. With c1cnc(N[C@H]2CC[C@@H](Oc3cc(N4CC5CC(C4)O5)cc4nccnc34)CC2)nc1 [Compound 291, N-[4-[7-(6-oxa-3-azabicyclo[3.1.1]heptan-3-yl)quinoxalin-5-yl]oxycyclohexyl]pyrimidin-2-amine] the Ki was less than 0.1 µM. OCc1ccnc(N[C@H]2CC[C@@H](Oc3cc(N4CCOCC4)cc4nccnc34)CC2)n1 [Compound 457] gave a Ki of less than 0.1 µM. In the case of CN(C)c1ccnc(N[C@H]2CC[C@@H](Oc3cc(N4CCOCC4)cc4nccnc34)CC2)n1 [Compound 489], the Ki is reported as less than 0.1 µM. c1cnc2c(O[C@H]3CC[C@@H](Nc4ncc(OCCCN5CCOCC5)cn4)CC3)cc(N3CCOCC3)cc2n1 [Compound 526] gave a Ki of less than 0.1 µM. Cc1cncc(N[C@H]2CC[C@@H](Oc3cc(N4CCOCC4)cc4nccnc34)CC2)n1 [Compound 373] gave a Ki of less than 0.1 µM. Molecule FC(F)(F)c1cnc(N[C@H]2CC[C@@H](Oc3cc(N4CCOCC4)cc4nccnc34)CC2)nc1 [Compound 418] has a Ki of less than 0.1 µM. For Cc1nccc(N[C@H]2CC[C@@H](Oc3cc(N4CC5CC(C4)O5)cc4nccnc34)CC2)n1 [Compound 353], the Ki was less than 0.1 µM. With OC(c1ccc(N[C@H]2CC[C@@H](Oc3cc(N4CCOCC4)cc4nccnc34)CC2)nc1)C(F)(F)F (some centres unmarked) [Compound 630] the Ki was less than 0.1 µM. Cc1cccnc1N[C@H]1CC[C@@H](Oc2cc(N3CCOCC3)cc3nccnc23)CC1 [Compound 586] gave a Ki of less than 0.1 µM. CN1CCN(c2ncnc(N[C@H]3CC[C@@H](Oc4cc(N5CCOCC5)cc5nccnc45)CC3)c2F)CC1 [Compound 474] showed a Ki of less than 0.1 µM. In the case of Fc1cccc(N[C@H]2CC[C@@H](Oc3cc(N4CCOCC4)cc4nccnc34)CC2)n1 [Compound 614], the Ki is reported as less than 0.1 µM. In the case of c1nc2c(c(N[C@H]3CC[C@@H](Oc4cc(N5CCOCC5)cc5nccnc45)CC3)n1)CCC2 [Compound 487], the Ki is reported as less than 0.1 µM. c1cc(-c2nnco2)nc(N[C@H]2CC[C@@H](Oc3cc(N4CCOCC4)cc4nccnc34)CC2)n1 [Compound 461] gave a Ki of less than 0.1 µM. OC1CCN(c2cc(N[C@H]3CC[C@@H](Oc4cc(N5CCOCC5)cc5nccnc45)CC3)ncn2)CC1 [Compound 492] showed a Ki of less than 0.1 µM. Work on Cn1nc(N[C@H]2CC[C@@H](Oc3cc(N4CCOCC4)cc4nccnc34)CC2)c2cccnc21 [Compound 329] yielded a Ki of less than 0.1 µM.
